The values that follow come from ChEMBL document CHEMBL1201862, “PubChem BioAssay data set” (2004).

The source made the active and inactive calls. Some results are limits rather than exact numbers.

Assay [1] has as its target T1, Heat shock factor protein 1 (Mus musculus, UniProt P38532).
T1 sequence (P38532 whole entry): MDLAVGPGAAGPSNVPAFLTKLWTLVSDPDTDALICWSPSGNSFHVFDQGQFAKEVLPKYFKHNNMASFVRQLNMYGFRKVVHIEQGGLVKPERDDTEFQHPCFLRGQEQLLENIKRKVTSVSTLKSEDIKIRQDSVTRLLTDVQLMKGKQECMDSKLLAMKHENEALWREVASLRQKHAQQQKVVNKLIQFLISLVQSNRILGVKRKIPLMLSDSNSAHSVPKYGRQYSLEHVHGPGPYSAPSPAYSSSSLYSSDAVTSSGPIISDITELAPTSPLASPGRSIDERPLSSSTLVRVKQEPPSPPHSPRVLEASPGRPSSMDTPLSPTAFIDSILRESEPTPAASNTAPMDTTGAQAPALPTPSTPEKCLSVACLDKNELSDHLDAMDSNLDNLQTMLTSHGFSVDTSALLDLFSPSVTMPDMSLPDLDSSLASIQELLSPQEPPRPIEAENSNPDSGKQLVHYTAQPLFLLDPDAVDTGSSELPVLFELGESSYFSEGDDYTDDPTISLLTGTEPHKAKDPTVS
The assay can be described thus: HSF1 potentiators in luciferase reporter cells, confirmation, cell-based, NIH3T3, luminescence, dose retest (AID 435004).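 Further: stress induced by proteasome inhibitor MG132 added 30 min after compound; luciferase reporter driven by HSF1 response element in NIH3T3 cells; actives raise luminescence as potentiators of the MG132 stress response.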 The class given is functional. In general terms: A reporter such as luciferase makes a cellular process visible.

Assay [2] can be described thus: ARNT/TACC3 interaction disruptors, potency, confirmation, biochemical, AlphaScreen, cherry-picked samples (AID 651703).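 Further: His-tagged ARNT PAS-B domain paired with GST-TACC3 E629A dimer coactivator fragment; potency of inhibitors that break up the complex and lower AlphaScreen signal.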 It is filed as functional, Homo sapiens. (Alpha assays give light when donor and acceptor beads are brought close together.)
For assay [3], the target named is Serine/threonine-protein phosphatase PP1-alpha catalytic subunit (Homo sapiens, UniProt P62136). The experiment in a line: PP1 phosphatase inhibitors, dose response, biochemical, fluorescence (AID 2394).
Assay [4] concerns the target T2, Serine/threonine-protein phosphatase (Homo sapiens, UniProt Q9BPW0).
T2 sequence (Q9BPW0 whole entry): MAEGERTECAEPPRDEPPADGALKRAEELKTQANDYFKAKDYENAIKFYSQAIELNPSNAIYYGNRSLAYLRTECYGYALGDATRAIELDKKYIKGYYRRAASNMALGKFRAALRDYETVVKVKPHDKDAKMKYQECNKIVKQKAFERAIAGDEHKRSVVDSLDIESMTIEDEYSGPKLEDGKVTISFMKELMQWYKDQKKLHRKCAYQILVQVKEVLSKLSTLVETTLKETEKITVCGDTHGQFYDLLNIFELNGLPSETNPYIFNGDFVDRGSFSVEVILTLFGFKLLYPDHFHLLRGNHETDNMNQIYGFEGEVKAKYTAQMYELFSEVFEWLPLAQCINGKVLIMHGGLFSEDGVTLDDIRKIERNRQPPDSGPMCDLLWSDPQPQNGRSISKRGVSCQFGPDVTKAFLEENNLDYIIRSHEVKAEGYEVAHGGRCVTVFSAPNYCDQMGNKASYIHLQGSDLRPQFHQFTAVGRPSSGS
The experiment in a line: PP5 phosphatase inhibitors, dose response, biochemical, fluorescence (AID 2395).

Assay [5] in a line: microbe, parasite or virus in culture. It is filed as functional. To be noted: Mycobacterium tuberculosis.
Assay [6] concerns the target Peroxisome proliferator-activated receptor gamma/Nuclear receptor coactivator 3 (Homo sapiens, UniProt P37231). The assay can be described thus: TR-FRET dose response biochemical High Throughput Screening assay for agonists of the steroid receptor coactivator 3 (SRC-3) recruitment by the peroxisome proliferator-activated receptor gamma (PPAR gamma): non-selective agonists. [Related pubchem assays: 1301 (Confirmation screen.), 1048 (Primary screen.)]. The class given is functional.

A further assay addresses T3, Estrogen receptor (Homo sapiens, UniProt P03372).
T3 sequence (P03372 whole entry): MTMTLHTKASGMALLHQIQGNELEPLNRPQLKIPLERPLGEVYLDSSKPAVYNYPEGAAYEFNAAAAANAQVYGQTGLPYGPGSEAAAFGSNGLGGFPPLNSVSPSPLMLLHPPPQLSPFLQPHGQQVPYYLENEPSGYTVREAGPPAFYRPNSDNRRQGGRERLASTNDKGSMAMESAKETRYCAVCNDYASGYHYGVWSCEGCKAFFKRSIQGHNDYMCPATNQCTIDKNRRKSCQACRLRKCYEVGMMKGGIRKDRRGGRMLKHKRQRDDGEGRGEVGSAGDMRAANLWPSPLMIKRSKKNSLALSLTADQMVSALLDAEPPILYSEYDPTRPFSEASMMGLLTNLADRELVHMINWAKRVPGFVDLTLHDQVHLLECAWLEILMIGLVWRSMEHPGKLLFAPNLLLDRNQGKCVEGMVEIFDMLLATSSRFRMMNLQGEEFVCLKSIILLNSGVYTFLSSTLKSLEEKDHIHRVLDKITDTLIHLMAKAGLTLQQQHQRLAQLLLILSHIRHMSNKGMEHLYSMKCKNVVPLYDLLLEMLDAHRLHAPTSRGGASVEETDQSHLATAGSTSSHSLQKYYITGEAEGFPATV

For assay [7], the target named is Peroxisome proliferator-activated receptor gamma/Nuclear receptor coactivator 1 (Homo sapiens, UniProt P37231). The assay can be described thus: TR-FRET dose response biochemical High Throughput Screening assay for agonists of the steroid receptor coactivator 1 (SRC-1) recruitment by the peroxisome proliferator-activated receptor gamma (PPAR gamma): non-selective agonists. [Related pubchem assays (depositor defined):AID1300, AID1808, AID504735, AID631]. It is filed as protein assay.

The target of a further assay is Genome polyprotein (Hepatitis C virus, UniProt Q2Q167). The experiment in a line: HCV core protein dimerization inhibitors, dose response, biochemical, TR-FRET (AID 2159).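 Further: blocks dimerization of HCV core protein measured by TR-FRET between tagged core106 pairs.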 The arrangement: species or system Hepacivirus hominis.
Assay [8] has as its target Peroxisome proliferator-activated receptor gamma/Nuclear receptor coactivator 2 (Homo sapiens, UniProt P37231). The experiment in a line: TR-FRET dose response biochemical High Throughput Screening assay for agonists of the steroid receptor coactivator 2 (SRC-2) recruitment by the peroxisome proliferator-activated receptor gamma (PPAR gamma): non-selective agonists. [Related pubchem assays: 1297, 1032 ]. It is filed as functional.

The next assay concerns the target NADPH oxidase 1 (Homo sapiens, UniProt Q9Y5S8). It is filed as functional, cell-based.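 Further: Cell-based assay with luminescence read-out, IC50 derived from inhibitor dose-response curves; intracellular ROS from endogenous NOX1 in intact HT29 colon cancer cells; potency of inhibitors that lower the ROS luminescence signal.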
The next assay has as its target Estrogen receptor beta (Homo sapiens, UniProt Q92731).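 Further: recombinant ER-beta bound to coactivator SRC1 peptide in presence of estradiol agonist; inhibitors block coactivator peptide binding and lower the FRET signal.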

Sequence of Genome polyprotein (Q2Q167 whole entry): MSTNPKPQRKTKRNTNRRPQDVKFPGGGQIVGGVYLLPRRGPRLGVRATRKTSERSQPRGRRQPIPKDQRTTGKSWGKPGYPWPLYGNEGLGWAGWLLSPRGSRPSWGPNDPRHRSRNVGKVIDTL
Sequence of Peroxisome proliferator-activated receptor gamma/Nuclear receptor coactivator 3 (P37231 whole entry): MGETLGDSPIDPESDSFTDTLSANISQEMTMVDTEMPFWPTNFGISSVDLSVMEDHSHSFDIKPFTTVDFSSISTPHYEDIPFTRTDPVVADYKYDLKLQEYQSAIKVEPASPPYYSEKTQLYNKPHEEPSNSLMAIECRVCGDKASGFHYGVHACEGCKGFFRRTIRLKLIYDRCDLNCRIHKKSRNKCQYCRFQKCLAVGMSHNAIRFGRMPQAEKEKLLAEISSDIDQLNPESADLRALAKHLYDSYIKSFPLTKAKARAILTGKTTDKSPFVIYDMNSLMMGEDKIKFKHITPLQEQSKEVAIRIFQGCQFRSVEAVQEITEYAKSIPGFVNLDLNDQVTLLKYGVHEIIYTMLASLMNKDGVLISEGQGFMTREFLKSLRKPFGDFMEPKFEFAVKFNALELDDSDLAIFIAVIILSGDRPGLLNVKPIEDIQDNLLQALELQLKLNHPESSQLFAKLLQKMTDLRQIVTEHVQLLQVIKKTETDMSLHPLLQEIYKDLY
Sequence of Peroxisome proliferator-activated receptor gamma/Nuclear receptor coactivator 3 (Q9Y6Q9 whole entry, further chain): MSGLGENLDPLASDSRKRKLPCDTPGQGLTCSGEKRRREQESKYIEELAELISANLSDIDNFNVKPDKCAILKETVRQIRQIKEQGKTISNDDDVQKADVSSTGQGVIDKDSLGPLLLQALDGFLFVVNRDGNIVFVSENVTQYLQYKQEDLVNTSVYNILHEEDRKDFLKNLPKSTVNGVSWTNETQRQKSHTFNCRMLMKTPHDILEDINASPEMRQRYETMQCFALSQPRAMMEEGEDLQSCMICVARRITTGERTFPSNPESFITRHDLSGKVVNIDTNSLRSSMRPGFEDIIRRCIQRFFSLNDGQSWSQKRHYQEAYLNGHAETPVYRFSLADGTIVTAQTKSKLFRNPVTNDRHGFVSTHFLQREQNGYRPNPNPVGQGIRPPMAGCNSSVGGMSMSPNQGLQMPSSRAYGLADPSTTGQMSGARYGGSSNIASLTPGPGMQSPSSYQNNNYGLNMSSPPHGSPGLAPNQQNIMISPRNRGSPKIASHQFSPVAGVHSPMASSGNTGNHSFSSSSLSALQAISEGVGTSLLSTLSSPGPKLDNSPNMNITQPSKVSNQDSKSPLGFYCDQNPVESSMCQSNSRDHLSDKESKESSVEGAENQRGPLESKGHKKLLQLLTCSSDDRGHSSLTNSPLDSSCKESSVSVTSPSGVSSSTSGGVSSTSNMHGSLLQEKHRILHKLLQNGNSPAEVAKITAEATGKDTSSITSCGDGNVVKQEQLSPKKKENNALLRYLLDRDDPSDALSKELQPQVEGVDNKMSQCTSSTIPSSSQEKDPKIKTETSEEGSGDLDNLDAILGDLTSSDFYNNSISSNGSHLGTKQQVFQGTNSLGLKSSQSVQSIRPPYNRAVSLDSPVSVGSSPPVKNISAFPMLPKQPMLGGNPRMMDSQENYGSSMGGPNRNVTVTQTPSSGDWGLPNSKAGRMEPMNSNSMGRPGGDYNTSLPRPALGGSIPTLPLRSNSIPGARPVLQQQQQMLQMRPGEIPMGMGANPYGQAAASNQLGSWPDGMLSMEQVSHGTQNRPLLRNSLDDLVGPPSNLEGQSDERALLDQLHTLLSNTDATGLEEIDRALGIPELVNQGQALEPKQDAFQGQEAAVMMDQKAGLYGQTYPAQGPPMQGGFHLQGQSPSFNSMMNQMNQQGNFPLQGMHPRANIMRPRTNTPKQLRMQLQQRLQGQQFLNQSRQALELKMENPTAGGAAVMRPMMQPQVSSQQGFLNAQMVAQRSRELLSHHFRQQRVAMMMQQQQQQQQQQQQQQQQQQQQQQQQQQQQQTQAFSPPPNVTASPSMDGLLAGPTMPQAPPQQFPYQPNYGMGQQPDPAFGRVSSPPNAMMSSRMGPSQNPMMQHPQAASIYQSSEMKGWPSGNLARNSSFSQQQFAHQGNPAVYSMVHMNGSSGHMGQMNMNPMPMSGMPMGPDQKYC
Sequence of Peroxisome proliferator-activated receptor gamma/Nuclear receptor coactivator 1 (P37231 whole entry): as the sequence (P37231 whole entry) above
Sequence of Peroxisome proliferator-activated receptor gamma/Nuclear receptor coactivator 1 (Q15788 whole entry, further chain): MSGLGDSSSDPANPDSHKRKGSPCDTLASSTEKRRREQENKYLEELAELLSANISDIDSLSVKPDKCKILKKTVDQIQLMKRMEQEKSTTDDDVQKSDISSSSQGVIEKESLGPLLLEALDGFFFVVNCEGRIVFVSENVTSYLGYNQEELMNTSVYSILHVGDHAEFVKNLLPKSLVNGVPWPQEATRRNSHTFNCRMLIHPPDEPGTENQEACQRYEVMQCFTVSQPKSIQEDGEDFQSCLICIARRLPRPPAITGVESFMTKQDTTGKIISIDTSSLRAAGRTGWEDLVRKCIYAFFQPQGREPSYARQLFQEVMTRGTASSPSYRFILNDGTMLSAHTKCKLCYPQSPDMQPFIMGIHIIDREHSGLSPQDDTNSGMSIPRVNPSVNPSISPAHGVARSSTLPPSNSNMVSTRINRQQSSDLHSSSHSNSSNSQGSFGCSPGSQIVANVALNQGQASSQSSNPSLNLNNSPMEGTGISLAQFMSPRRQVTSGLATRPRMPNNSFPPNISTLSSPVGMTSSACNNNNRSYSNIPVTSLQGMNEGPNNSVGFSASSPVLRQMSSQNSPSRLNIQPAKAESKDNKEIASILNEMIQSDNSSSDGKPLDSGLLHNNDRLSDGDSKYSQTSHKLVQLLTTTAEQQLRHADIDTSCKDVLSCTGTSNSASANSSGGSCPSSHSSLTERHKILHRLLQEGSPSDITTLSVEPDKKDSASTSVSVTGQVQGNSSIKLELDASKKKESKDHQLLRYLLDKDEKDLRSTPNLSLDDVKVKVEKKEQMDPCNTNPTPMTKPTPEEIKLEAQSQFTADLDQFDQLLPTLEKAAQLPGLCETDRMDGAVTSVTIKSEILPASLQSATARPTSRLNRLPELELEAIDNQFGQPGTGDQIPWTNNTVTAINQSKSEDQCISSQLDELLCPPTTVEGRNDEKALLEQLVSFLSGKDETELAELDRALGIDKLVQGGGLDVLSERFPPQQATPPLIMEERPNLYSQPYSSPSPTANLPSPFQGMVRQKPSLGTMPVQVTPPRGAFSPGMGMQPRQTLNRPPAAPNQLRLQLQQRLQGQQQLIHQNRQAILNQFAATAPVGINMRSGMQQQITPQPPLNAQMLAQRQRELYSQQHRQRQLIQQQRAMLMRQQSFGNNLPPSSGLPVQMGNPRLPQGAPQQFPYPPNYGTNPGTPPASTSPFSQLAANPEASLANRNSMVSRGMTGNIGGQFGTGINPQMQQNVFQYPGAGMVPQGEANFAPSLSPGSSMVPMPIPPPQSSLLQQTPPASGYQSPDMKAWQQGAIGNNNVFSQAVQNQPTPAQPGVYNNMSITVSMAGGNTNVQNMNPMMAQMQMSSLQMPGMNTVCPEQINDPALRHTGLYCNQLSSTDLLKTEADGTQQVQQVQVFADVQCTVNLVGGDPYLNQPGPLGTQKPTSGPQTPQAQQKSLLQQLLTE
Sequence of Estrogen receptor beta (Q92731 whole entry): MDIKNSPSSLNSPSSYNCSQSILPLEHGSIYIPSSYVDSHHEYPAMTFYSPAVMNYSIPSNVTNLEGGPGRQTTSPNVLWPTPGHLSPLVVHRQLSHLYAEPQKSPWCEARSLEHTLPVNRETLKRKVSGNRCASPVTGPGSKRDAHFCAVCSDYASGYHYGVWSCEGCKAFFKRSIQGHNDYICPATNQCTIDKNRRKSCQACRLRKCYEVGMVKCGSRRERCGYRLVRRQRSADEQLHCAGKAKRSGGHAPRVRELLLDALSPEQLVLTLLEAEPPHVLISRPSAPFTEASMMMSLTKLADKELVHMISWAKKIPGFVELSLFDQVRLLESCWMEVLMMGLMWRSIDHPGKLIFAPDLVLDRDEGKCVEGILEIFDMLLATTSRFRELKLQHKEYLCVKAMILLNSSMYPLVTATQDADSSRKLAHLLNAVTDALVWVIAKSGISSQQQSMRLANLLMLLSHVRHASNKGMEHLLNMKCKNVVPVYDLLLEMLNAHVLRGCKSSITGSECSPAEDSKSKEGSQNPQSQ
Sequence of Serine/threonine-protein phosphatase PP1-alpha catalytic subunit (P62136 whole entry): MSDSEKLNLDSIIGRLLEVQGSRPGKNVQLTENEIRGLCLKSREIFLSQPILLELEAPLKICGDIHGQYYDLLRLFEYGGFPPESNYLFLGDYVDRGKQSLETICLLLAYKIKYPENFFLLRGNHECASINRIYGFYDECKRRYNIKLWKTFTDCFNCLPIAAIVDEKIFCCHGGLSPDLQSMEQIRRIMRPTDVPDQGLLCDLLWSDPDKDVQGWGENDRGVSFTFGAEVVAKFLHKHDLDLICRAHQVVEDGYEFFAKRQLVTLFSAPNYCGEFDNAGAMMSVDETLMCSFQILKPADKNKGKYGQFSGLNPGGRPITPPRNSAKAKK

With `CCCCN(CC)c1nc(N)c2c(N)nc(OCC)cc2c1C#N`, in [1], the EC50 (in general, the concentration that produces a half-maximal response) was > 260 µM (inactive). Besides, the AC50 – broadly, the concentration giving half of the maximal activity seen – in [2] was 92.8 µM (active). For the same molecule, the IC50 (usually the concentration that gives 50% inhibition) in [3] is on record as > 67 µM (not active); in [4] it was 15.2 µM (not active). Also, the CC50 in assay [5] was > 40 µM (active).

Turning to `Cc1cc(C(=O)OCC(=O)c2ccc(Br)s2)no1`, the EC50 in assay [6] is > 79.4 µM (not active); in assay [7], 137 µM (inactive); in assay [8] it was 3.89 µM (active). Further, the half-inhibitory concentration (IC50) is given as 36.2 µM (not active) against Estrogen receptor and > 49.8 µM (not active) against Genome polyprotein.

In the case of `CN(C)c1ccc(-c2nc(-c3ccccc3)c(-c3ccccc3)[nH]2)cc1`, the IC50 on NADPH oxidase 1 is 7.95 µM (active).

With `CC(=N)/C(C#N)=C(/O)CSc1nnc(Nc2cccc(C)c2C)s1`, the IC50 at Estrogen receptor beta was 12.3 µM (active).
